In ChEMBL document CHEMBL1159199, “A new antiplatelet diarylheptanoid from Alpinia blepharocalyx” (1998):

Legend:
Type in all cases: functional
[1] = Antiplatelet activity in human whole blood assessed as inhibition of arachidonic acid-induced platelet aggregation at 100 ug/mL relative to control
[2] = Antiplatelet activity in human whole blood assessed as inhibition of ristocetin-induced platelet aggregation at 100 ug/mL relative to control
[3] = Antiplatelet activity in human whole blood assessed as inhibition of collagen-induced platelet aggregation at 100 ug/mL relative to control
[4] = Antiplatelet activity in human whole blood assessed as inhibition of ADP-induced platelet aggregation at 100 ug/mL relative to control

Structure (SMILES) | inhibition at 100 µg/mL [1] | inhibition at 100 µg/mL [2] | inhibition at 100 µg/mL [3] | inhibition at 100 µg/mL [4]
O=C(/C=C(O)/C=C/c1ccc(O)cc1)CCc1ccc(O)cc1 | 100% | 62.8% | 77.3% | 100%
COc1cc(/C=C/c2ccc(O)cc2)oc(=O)c1 | 100% | 100% | 86.9% | 100%
COc1cc(O)cc2c1C(=O)CC(c1ccc(O)cc1)O2 (stereo unspecified) | 26.2% | 37.2% | 57.7% | 14.5%
O=Cc1ccc(O)cc1 [4-HYDROXYBENZALDEHYDE] | 5.4% | 11% | 23.6% | 39.8%
O=C(/C=C/c1ccc(O)cc1)CC(=O)/C=C/c1ccc(O)cc1 [BISDEMETHOXYCURCUMIN] | 46.8% | 38.3% | 76.3% | 35.4%
COc1cc(O)cc(O)c1C(=O)/C=C/c1ccccc1 [CARDAMOMIN] | 100% | 0% | 56% | 62.9%
COc1cc(/C=C/c2ccccc2)oc(=O)c1 [DESMETHOXYYANGONIN] | 100% | 33.3% | 48.9% | 43.8%
COc1cc(O)cc(O)c1C(=O)/C=C/c1ccc(O)cc1 [HELICHRYSETIN] | 100% | 63.8% | 32.3% | 48.9%
COc1ccc2c(c1)c(CC(=O)O)c(C)n2C(=O)c1ccc(Cl)cc1 [INDOMETHACIN] | 100% | 52.1% | 71.1% | 36.7%
